Source: patent publication US11180474B2 (BRISTOL-MYERS SQUIBB COMPANY, priority 2016, dated 2021)

Target: T1, human TLR9 (Homo sapiens, UniProt Q9NR96)
T1 construct: host or cells: HEK-Blue cells
T1 sequence (Q9NR96 26-1032): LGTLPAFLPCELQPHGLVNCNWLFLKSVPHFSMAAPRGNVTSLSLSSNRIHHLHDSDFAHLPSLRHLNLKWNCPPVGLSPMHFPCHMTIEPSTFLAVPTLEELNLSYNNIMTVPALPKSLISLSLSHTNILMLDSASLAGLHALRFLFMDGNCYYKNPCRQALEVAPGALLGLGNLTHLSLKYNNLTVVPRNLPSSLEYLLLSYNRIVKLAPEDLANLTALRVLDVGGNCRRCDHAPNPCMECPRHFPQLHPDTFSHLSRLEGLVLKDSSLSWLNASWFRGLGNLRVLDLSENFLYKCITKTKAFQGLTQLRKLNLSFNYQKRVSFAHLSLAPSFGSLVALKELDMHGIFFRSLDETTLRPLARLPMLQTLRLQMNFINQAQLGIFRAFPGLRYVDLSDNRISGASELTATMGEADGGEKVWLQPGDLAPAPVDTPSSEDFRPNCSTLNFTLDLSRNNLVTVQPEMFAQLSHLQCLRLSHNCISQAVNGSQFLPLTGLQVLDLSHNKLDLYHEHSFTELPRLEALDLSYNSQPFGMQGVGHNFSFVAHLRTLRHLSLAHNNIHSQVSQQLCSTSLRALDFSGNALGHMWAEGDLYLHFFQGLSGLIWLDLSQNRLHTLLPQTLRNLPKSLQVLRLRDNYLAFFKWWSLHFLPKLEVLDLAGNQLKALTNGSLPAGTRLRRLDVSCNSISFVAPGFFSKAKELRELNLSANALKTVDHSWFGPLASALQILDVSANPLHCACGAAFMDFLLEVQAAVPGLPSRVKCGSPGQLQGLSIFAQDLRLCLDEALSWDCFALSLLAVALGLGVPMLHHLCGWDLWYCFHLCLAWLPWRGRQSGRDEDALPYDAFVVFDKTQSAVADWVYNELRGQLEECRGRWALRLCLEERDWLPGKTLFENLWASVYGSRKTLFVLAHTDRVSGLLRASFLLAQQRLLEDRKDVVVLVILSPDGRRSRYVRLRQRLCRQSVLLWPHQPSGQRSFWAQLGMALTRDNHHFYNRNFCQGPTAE
Assay: TLR9 inhibition reporter assay (HEK-Blue cells, SEAP reporter, ODN2006 stimulation)
Format: cell-based
Settings: HEK-Blue cells overexpressing human TLR9, ODN2006 5 nM
In short: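 Dose–response from 0.05 nM to 50 μM was run in HEK-Blue human TLR7, TLR8 and TLR9 reporter cells. After 30 min at room temperature with compound, ligand was added (TLR7 gardiquimod 7.5 μM; TLR8 R848 15.9 μM; TLR9 ODN2006 5 nM) and SEAP measured next day, at 22 h.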

SMILES | IC50
CCc1c(-c2ccc(OC)c(OC)c2)[nH]c2ccc(C3CCN(C(=O)CN4CCCC(C(=O)N(CC)CC)C4)CC3)cc12 (single isomer, unassigned) [Example 178, 1-(2-(4-(2-(3,4-dimethoxyphenyl)-3-ethyl-1H-indol-5-yl)piperidin-1-yl)-2-oxoethyl)-N,N-diethylpiperidine-3-carboxamide] | 5230 nM
CCc1c(-c2ccc(OC)c(OC)c2)[nH]c2ccc(C3CCN(C4CCN(C5CCCC5)CC4)CC3)cc12 [Example 152, 5-(1′-cyclopentyl-[1,4′-bipiperidin]-4-yl)-2-(3,4-dimethoxyphenyl)-3-ethyl-1H-indole] | 233 nM
COc1ccc(-c2[nH]c3ccc(C4CCN(C5CCN(C(C)C)CC5)CC4)cc3c2C)cc1OC [Example 10, 2-(3,4-dimethoxyphenyl)-5-(1′-isopropyl-[1,4′-bipiperidin]-4-yl)-3-methyl-1H-indole] | 202 nM
CCc1c(-c2ccc(OC)c(OC)c2)[nH]c2ccc(C3CCN(C4CCN(Cc5cc(C)n(C)n5)CC4)CC3)cc12 [Example 144, 2-(3,4-dimethoxyphenyl)-5-(1′-((1,5-dimethyl-1H-pyrazol-3-yl)methyl)-[1,4′-bipiperidin]-4-yl)-3-ethyl-1H-indole] | 495 nM
CNCCN1CCC(c2ccc3c(c2)c(C)c(-c2ccc(OC)c(OC)c2)n3C)CC1 [Example 114, 2-(4-(2-(3,4-dimethoxyphenyl)-1,3-dimethyl-1H-indol-5-yl)piperidin-1-yl)-N-methylethan-1-amine] | 737 nM
COc1ccc(-c2[nH]c3ccc(C4CCN(C(=O)CNC5(CO)CCCC5)CC4)cc3c2C(C)C)cc1OC [Example 213, 1-(4-(2-(3,4-dimethoxyphenyl)-3-isopropyl-1H-indol-5-yl)piperidin-1-yl)-2-((1-(hydroxymethyl)cyclopentyl)amino)ethan-1-one] | 2070 nM
COc1ccc(-c2[nH]c3cc(C)c(C4CCNCC4)cc3c2C(C)C)cc1OC [Example 205, 2-(3,4-dimethoxyphenyl)-3-isopropyl-6-methyl-5-(piperidin-4-yl)-1H-indole] | 966 nM
COc1ccc(-c2[nH]c3ccc(C4CCN(C(=O)CNC56CC7CC(CC(C7)C5)C6)CC4)cc3c2C(C)C)cc1OC [Example 217, 2-(((3s,5s,7s)-adamantan-1-yl)amino)-1-(4-(2-(3,4-dimethoxyphenyl)-3-isopropyl-1H-indol-5-yl)piperidin-1-yl)ethan-1-one] | 2130 nM
COc1ccc(-c2[nH]c3ccc(C4CCN(C(=O)CNCC#N)CC4)cc3c2C(C)C)cc1OC [Example 214, 2-((2-(4-(2-(3,4-dimethoxyphenyl)-3-isopropyl-1H-indol-5-yl)piperidin-1-yl)-2-oxoethyl)amino) acetonitrile] | ≥ 50000 nM
CCc1c(-c2ccc(OC)c(OC)c2)[nH]c2ccc(C3CCN(C4CCN(Cc5ccc(-c6ccccc6)s5)CC4)CC3)cc12 [Example 141, 2-(3,4-dimethoxyphenyl)-3-ethyl-5-(1′-((5-phenylthiophen-2-yl)methyl)-[1,4′-bipiperidin]-4-yl)-1H-indole] | ≥ 50000 nM
COc1ccc(-c2[nH]c3ccc(C4CCN(C(=O)CNCCO)CC4)cc3c2C(C)C)cc1OC [Example 212, 1-(4-(2-(3,4-dimethoxyphenyl)-3-isopropyl-1H-indol-5-yl)piperidin-1-yl)-2-((2-hydroxyethyl)amino)ethan-1-one] | 1190 nM
COc1ccc(-c2[nH]c3ccc(C4CCN(C(=O)CNC(CO)CO)CC4)cc3c2C(C)C)cc1OC [Example 220, 2-((1,3-dihydroxypropan-2-yl)amino)-1-(4-(2-(3,4-dimethoxyphenyl)-3-isopropyl-1H-indol-5-yl)piperidin-1-yl)ethan-1-one] | 5580 nM

Further molecules by falling IC50, results first:

IC50 | SMILES
10200 nM | CCc1c(-c2ccc(OC)c(OC)c2)[nH]c2ccc(C3CCN(C(=O)c4ccncc4)CC3)cc12 [Example 183, (4-(2-(3,4-dimethoxyphenyl)-3-ethyl-1H-indol-5-yl)piperidin-1-yl)(pyridin-4-yl) methanone]
6230 nM | CCc1c(-c2ccc(OC)c(OC)c2)[nH]c2ccc(C3CCN(C4CCN(Cc5csnn5)CC4)CC3)cc12 [Example 130, 4-((4-(2-(3,4-dimethoxyphenyl)-3-ethyl-1H-indol-5-yl)-[1,4′-bipiperidin]-1′-yl)methyl)-1,2,3-thiadiazole]
3360 nM | CCc1c(-c2ccc(OC)c(OC)c2)[nH]c2ccc(C3CCN(C(=O)CNc4nccs4)CC3)cc12 [Example 177, 1-(4-(2-(3,4-dimethoxyphenyl)-3-ethyl-1H-indol-5-yl)piperidin-1-yl)-2-(thiazol-2-ylamino)ethanone]
2340 nM | CCc1c(-c2ccc(OC)c(OC)c2)[nH]c2ccc(C3CCN(C4CCN(C)CC4)CC3)cc12 [Example 150, 2-(3,4-dimethoxyphenyl)-3-ethyl-5-(1′-methyl-[1,4′-bipiperidin]-4-yl)-1H-indole]
1410 nM | CCc1c(-c2ccc(OC)c(OC)c2)[nH]c2ccc(C3CCNCC3)cc12 [Example 122, 2-(3,4-dimethoxyphenyl)-3-ethyl-5-(piperidin-4-yl)-1H-indole]
1280 nM | CCc1c(-c2ccc(OC)c(OC)c2)[nH]c2ccc(C3CCN(C(=O)C4(C)CCNCC4)CC3)cc12 [Example 187, (4-(2-(3,4-dimethoxyphenyl)-3-ethyl-1H-indol-5-yl)piperidin-1-yl)(4-methylpiperidin-4-yl)methanone]
1280 nM | COc1ccc(-c2[nH]c3ccc(C4CCN(C(=O)CNC56CC7CC(CC(O)(C7)C5)C6)CC4)cc3c2C(C)C)cc1OC [Example 218, 1-(4-(2-(3,4-dimethoxyphenyl)-3-isopropyl-1H-indol-5-yl)piperidin-1-yl)-2-(((1r,3s,5R,7S)-3-hydroxyadamantan-1-yl)amino)ethan-1-one]
1260 nM | COc1ccc(-c2[nH]c3ccc(C4CCN(C5CCN(C)CC5)CC4)cc3c2C(C)C)cc1OC [Example 200, 2-(3,4-dimethoxyphenyl)-3-isopropyl-5-(1′-methyl-[1,4′-bipiperidin]-4-yl)-1H-indole]
990 nM | COc1ccc(-c2[nH]c3ccc(C4CCN(C(=O)CN5CCC(N6CCCCC6)CC5)CC4)cc3c2C(C)C)cc1OC [Example 211, 2-([1,4′-bipiperidin]-1′-yl)-1-(4-(2-(3,4-dimethoxyphenyl)-3-isopropyl-1H-indol-5-yl)piperidin-1-yl)ethan-1-one]
730 nM | CCc1c(-c2ccc(OC)c(OC)c2)[nH]c2ccc(C3CCN(C4CCN(Cc5ccc(-c6ccccc6)o5)CC4)CC3)cc12 [Example 143, 2-(3,4-dimethoxyphenyl)-3-ethyl-5-(1′-((5-phenylfuran-2-yl)methyl)-[1,4′-bipiperidin]-4-yl)-1H-indole]
650 nM | COc1ccc(-c2[nH]c3ccc(C4CCN(C5CCN(C(C)C)CC5)CC4)cc3c2C(C)C)cc1OC [Example 201, 2-(3,4-dimethoxyphenyl)-3-isopropyl-5-(1′-isopropyl-[1,4′-bipiperidin]-4-yl)-1H-indole]
556 nM | CCc1c(-c2ccc(OC)c(OC)c2)[nH]c2ccc(C3CCN(C4CCN(C(C)C)CC4)CC3)cc12 [Example 151, 2-(3,4-dimethoxyphenyl)-3-ethyl-5-(1′-isopropyl-[1,4′-bipiperidin]-4-yl)-1H-indole]
374 nM | CNCCN1CCC(c2cc3c(C(C)C)c(-c4ccc(OC)c(OC)c4)[nH]c3cc2F)CC1 [Example 208, 2-(4-(2-(3,4-dimethoxyphenyl)-6-fluoro-3-isopropyl-1H-indol-5-yl)piperidin-1-yl)-N-methylethan-1-amine]
340 nM | COc1ccc(-c2[nH]c3ccc(C4CCN(C5CCN(C6CCCC6)CC5)CC4)cc3c2C(C)C)cc1OC [Example 202, 5-(1′-cyclopentyl-[1,4′-bipiperidin]-4-yl)-2-(3,4-dimethoxyphenyl)-3-isopropyl-1H-indole]
133 nM | CCc1c(-c2ccc(OC)c(OC)c2)[nH]c2ccc(C3CCN(C4CCN(Cc5ccsc5)CC4)CC3)cc12 [Example 142, 2-(3,4-dimethoxyphenyl)-3-ethyl-5-(1′-(thiophen-3-ylmethyl)-[1,4′-bipiperidin]-4-yl)-1H-indole]
77 nM | COc1ccc(-c2[nH]c3cc(C)c(C4CCN(C5CCN(C(C)C)CC5)CC4)cc3c2C)cc1OC [Example 115, 2-(3,4-dimethoxyphenyl)-5-(1′-isopropyl-[1,4′-bipiperidin]-4-yl)-3,6-dimethyl-1H-indole-di-trifluoroacetic acid]
